SMILES strings stand for the structures.

Data set [1] concerns the target smooth muscle angiotensin II receptor. The data set can be described thus: Assay A: Angiotensin II Binding Activity. The following applies: displacement of 125I-AII, rat uterine membrane preparation. As to the method: Compounds of the invention were tested for ability to bind to the smooth muscle angiotensin II receptor using a rat uterine membrane preparation. […] Other chemicals were obtained from Sigma Chemical Co. This assay was carried out according to the method of Douglas et al [Endocrinology, 106, 120-124 (1980)]. Rat uterine membranes were prepared from fresh tissue. All procedures were carried out at 4° C. Uteri were stripped of fat and homogenized in phosphate-buffered saline at pH 7.4 containing 5 mM EDTA. The homogenate was centrifuged at 1500×g for 20 min., and the supernatant was recentrifuged at 100,000×g for 60 min. The pellet was resuspended in buffer consisting of 2 mM EDTA and 50 mM Tris-HCl (pH 7.5) to a final protein concentration of 4 mg/ml. […] The reaction was initiated by the addition of membrane protein and the mixture was incubated at 25° C. for 60 min. The incubation was terminated with ice-cold 50 mM Tris-HCl (pH 7.5) and the mixture was filtered to separate membrane-bound labelled peptide from the free ligand. The incubation tube and filter were washed with ice-cold buffer. Filters were assayed for radioactivity in a Micromedic gamma counter. […] Specific binding was calculated as total binding minus nonspecific binding. […] Binding data were analyzed by a nonlinear least-squares curve fitting program.
(In general: Displacement assays read how much labelled ligand stays bound in the presence of the test substance.)

The test system of data set [2] is AII pressor response. The data set can be described thus: Assay C: In Vivo Intraduodenal Pressor Assay Response for AII Antagonists. The arrangement: species or system rat. To be noted: anesthetized Sprague-Dawley rats, 30 mg/kg i.d.; for Assay C Inhibition: inhibition of AII pressor response; for Assay C Duration: time from peak percent inhibition to 50% of peak. The method, then: Male Sprague-Dawley rats weighing 225-300 grams were anesthetized with Inactin (100 mg/kg, i.p.) and catheters were implanted into the trachea, femoral artery, femoral vein and duodenum. Arterial pressure was recorded from the femoral artery catheter on a Gould chart recorder (Gould, Cleveland, Ohio). The femoral vein catheter was used for injections of angiotensin II, mecamylamine and atropine. The tracheal catheter allows for airway patency, and the duodenal catheter was used for intraduodenal (i.d.) administration of test compounds. After surgery, the rats were allowed to equilibrate for 30 minutes. Mecamylamine (3 mg/kg, 0.3 ml/kg) and atropine (400 ug/kg, 0.3 ml/kg) were then given i.v. to produce ganglion blockade. These compounds were administered every 90 minutes throughout the test procedure. Angiotensin II was given in bolus doses i.v. (30 ng/kg in saline with 0.5% bovine serum albumin, 0.1 ml/kg) every 10 minutes three times or until the increase in arterial pressure produced was within 3 mmHg for two consecutive AII injections. The last two AII injections were averaged and were taken as the control AII pressor response. Ten minutes after the final control AII injection, the test compound (dissolved in sodium bicarbonate) was administered i.d. at a dose of 30 mg/kg in a volume of 0.2 ml. Angiotensin II injections were then given 5, 10, 20, 30, 45, 60, 75, 90, and 120 minutes after administration of the test compound and response of arterial pressure was monitored. The response to AII was calculated as percent of the control response and then the percent inhibition is calculated as 100 minus the percent control response. Duration of action of a test compound was defined as the time from peak percent inhibition to 50% of peak. One compound at one dose was tested in each rat. Each test compound was tested in two rats and the values for the two rats were averaged.

The test system of data set [3] is rabbit aortic rings. The experiment in a line: Assay B: In Vitro Vascular Smooth Muscle Response for AII. To be noted: test antagonist at 10^-5 M, AII contraction. As to the method: The compounds of the invention were tested for antagonist activity in rabbit aortic rings. Male New Zealand white rabbits (2-2.5 kg) were sacrificed using an overdose of pentobarbital and exsanguinated via the carotid arteries. The thoracic aorta was removed, cleaned of adherent fat and connective tissue and then cut into 3-mm ring segments. The endothelium was removed from the rings by gently sliding a rolled-up piece of filter paper into the vessel lumen. The rings were then mounted in a water-jacketed tissue bath, maintained at 37° C., between moveable and fixed ends of a stainless steel wire with the moveable end attached to an FT03 Grass transducer coupled to a Model 7D Grass Polygraph for recording isometric force responses. […] The preparations were equilibrated for one hour before approximately one gram of passive tension was placed on the rings. Angiotensin II concentration-response curves were then recorded (3×10^−10 to 1×10^−5 M). Each concentration of AII was allowed to elicit its maximal contraction, and then AII was washed out repeatedly for 30 minutes before rechallenging with a higher concentration of AII. Aorta rings were exposed to the test antagonist at 10^−5 M for 5 minutes before challenging with AII. […] Each test antagonist was evaluated in aorta rings from two rabbits.

As usually defined, the IC50 is the concentration needed to halve the response being measured. Lower therefore signals greater potency in that assay. By melting point is commonly meant the temperature, or range, at which the solid turns liquid. Turning to `CCCCc1nc(Cl)c(Cl)n1Cc1ccc(-n2cccc2C(=O)O)cc1` [Example 1, 1-[4-[(2-n-Butyl-4,5-dichloro-imidazolyl)methyl]phenyl]-1H-pyrrole-2-carboxylic Acid], the melting point was in the range of 181 to 182 °C. Besides, in data set [1], the IC50 came to 5.8 µM. Further, in data set [2], the “Assay C Inhibition” value is 74% and the “Assay C Duration” value was 5 to 10 min. Further, the “Assay B pA2” value in data set [3] was 5.6.

`CCCCc1nc(Cl)c(CO)n1Cc1ccc(-n2cccc2C(=O)O)cc1` [Example 2]: in data set [2], the “Assay C Inhibition” value was determined as 92% and the “Assay C Duration” value lay in the range of 20 to 30 min.

With `CCCCc1nc(CO)c(Cl)n1Cc1ccc(-n2cccc2C(=O)O)cc1` [Example 3], the melting point was 180 to 181 °C.

The record behind these values is patent US6451833B1, “N-substituted (α-imidazolyl-toluyl)pyrrole compounds for treatment of circulatory disorders” (Pharmacia Corporation, priority 1991, dated 2002).
